Measured values: ChEMBL document CHEMBL1157495 (Bioorg Med Chem Lett, 2008)

Experiments:
Plasmodium berghei [1] = assay: (§1) Antimalarial activity after 10 days against Plasmodium berghei ANKA infected Anopheles stephensi at 10 uM/kg; assay type: functional
Plasmodium berghei [2] = assay: as §1; assay type: functional; remark: listed apart in the source
Plasmodium berghei [3] = assay: (§2) Antimalarial activity after 10 days against Plasmodium berghei ANKA infected Anopheles stephensi at 50 uM/kg; assay type: functional
Plasmodium falciparum = assay: Antiplasmodial activity against chloroquine-resistant Plasmodium falciparum W2; assay type: functional, organism-based
Plasmodium berghei [4] = assay: as §2; assay type: functional; remark: listed apart in the source

COc1cc(NC(C)CCCN2C(=O)CN(C(=O)CN)C2(C)C)c2ncccc2c1 (stereo not drawn)
Activity (Plasmodium berghei [1]): 42%
Activity (Plasmodium berghei [2]): 1.08
Activity (Plasmodium berghei [3]): 0.79

COc1cc(NC(C)CCCN2C(=O)CN(C(=O)[C@H](C)N)C2(C)C)c2ncccc2c1 (stereo partly drawn)
IC50 (Plasmodium falciparum): 8 µM
Activity (Plasmodium berghei [1]): 67.9%
Activity (Plasmodium berghei [2]): 9.71
Activity (Plasmodium berghei [3]): 1.34
Activity (Plasmodium berghei [4]): 40.1%

COc1cc(NC(C)CCCN2C(=O)[C@H](C)N(C(=O)CN)C2(C)C)c2ncccc2c1 (stereo partly drawn)
IC50 (Plasmodium falciparum): 5.5 µM

COc1cc(NC(C)CCCN2C(=O)[C@H](CCSC)N(C(=O)CN)C2(C)C)c2ncccc2c1 (stereo partly drawn)
IC50 (Plasmodium falciparum): 3.3 µM

COc1cc(NC(C)CCCN2C(=O)CN(C(=O)[C@@H](N)CC(C)C)C2(C)C)c2ncccc2c1 (stereo partly drawn)
IC50 (Plasmodium falciparum): 6.3 µM

COc1cc(NC(C)CCCN)c2ncccc2c1 (stereo not drawn) [PRIMAQUINE]
Activity (Plasmodium berghei [1]): 41.7%
Activity (Plasmodium berghei [2]): 2
Activity (Plasmodium berghei [3]): 0.95
Activity (Plasmodium berghei [4]): 42.9%

COc1cc(NC(C)CCCN2C(=O)[C@H](C)NC2(C)C)c2ncccc2c1 (stereo partly drawn)
IC50 (Plasmodium falciparum): > 50 µM

COc1cc(NC(C)CCCN2C(=O)CN(C(=O)[C@@H](N)C(C)C)C2(C)C)c2ncccc2c1 (stereo partly drawn)
IC50 (Plasmodium falciparum): 7.9 µM

COc1cc(NC(C)CCCN2C(=O)CN(C(=O)[C@@H](N)CCSC)C2(C)C)c2ncccc2c1 (stereo partly drawn)
IC50 (Plasmodium falciparum): 12 µM
